Measurements from US6291657A (priority 1993, dated 2001).
Entries after “also recorded” stand apart in the source; their conditions may differ.

Columns and labels:
[1] = tested on: glycolipid biosynthesis in HL-60 cells; assay: Inhibition of glycolipid biosynthesis in HL-60 cells, [14C]-palmitic acid labelling, 1D-TLC;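 for all read-outs here: cells cultured 24 h with or without test compound, total cellular lipids resolved by one-dimensional TLC and detected by autoradiography, inhibition shown as missing Glc-Cer and gangliosides versus untreated cells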; format: cell-based, human; details: for effect of N-alkyl chain length on inhibition of glycolipid biosynthesis (loss of detectable Glc-Cer): HL-60, 0.5 mM, 1D-TLC (FIG. 4); for inhibition of glycolipid biosynthesis: HL-60, 500 μM, 1D-TLC (FIG. 1)
[2] = tested on: Glc-Cer accumulation in WEHI-3B murine macrophage cells; assay: In vitro Gaucher's disease model: CBE induced glycolipid storage in WEHI-3B cells, 1D-TLC; format: cell-based; details: CBE
Procedure: In this model, the murine macrophage cell line WEHI-3B was cultured in the presence of an irreversible glucocerebrosidase inhibitor, conduritol β epoxide (CBE), to mimic the inherited disorder found in Gaucher's disease. WEHI-3B cells are well-known, widely distributed and readily available murine macrophage cells. They are described in Cancer Res. 37, 546-550 (1977), and are readily available from the American Type Culture Collection, Rockville, Md, under accession number ATCC TIB 68. The compounds of the invention prevent lysosomal glycolipid storage which is useful for the management of Gaucher's disease and other glycolipid storage disorders as illustrated hereinafter in Table 3. Gaucher's disease is an autosomal recessive disorder characterized by an impaired ability to degrade glucocerebroside (glucosyl ceramide, Glc-Cer) due to mutations in the gene encoding β-glucocerebrosidase (β-D-glucosyl-N-acylsphingosine glucohydrolase, EC 3.2.1.45). This defect results in the lysosomal accumulation of Glc-Cer in cells of the macrophage-monocyte system [Barranger and Ginns, in The Metabolic Basis of Inherited Diseases, ed. Scriver et al., pp. 1677-1698, McGraw-Hill, New York, (1989); Beutler, Science 256, 794-799 (1992)]. By slowing the rate of glycolipid synthesis, the impaired catabolism of Glc-Cer can be offset, thereby leading to the maintenance of a balanced level of Glc-Cer.
FIGS. 5 and 6 show the analysis of NB-DNJ and NB-DGJ in an in vitro Gaucher's disease model.
The in vitro Gaucher's disease model was prepared as follows: WEHI-3B cells (American Type Culture Collection, Rockville, Md., U.S.A.) were maintained in logarithmic phase growth for 14 days in RPMI-1640 medium, 10% FCS, in the presence or absence of 50 μM conduritol β epoxide (CBE, Toronto Research Chemicals, Downsview, Canada) with or without NB-DNJ or NB-DGJ. Cells were passaged every 3 days and compound concentrations maintained throughout. Equal cell numbers (5×10^6) were harvested, extracted in 1 ml chloroform: methanol (2:1 v/v) overnight at 4° C., the extracts centrifuged, the chloroform:methanol extract retained and the pellet re-extracted as above for 2 hr. at room temperature. Pooled extracts were dried under nitrogen, re-dissolved in 10 μl chloroform:methanol (2:1 v/v) and separated by 1D-TLC in chloroform:methanol:water […]. Plates were air dried and visualized using α-naphthol (1% w/v in methanol) followed by 50% (v/v) sulphuric acid.

[3] = tested on: UDP-glucose:N-acylsphingosine glucosyltransferase; assay: Inhibition of UDP-glucose:N-acylsphingosine glucosyltransferase; format: biochemical, rat brain, mouse macrophage (WEHI-3B); details: for IC50: highest concentrations tested, read-out: IC50 (not inhibitory)
WEHI-3B cell lysosomes = assay: Transmission electron microscopy of lysosomes of CBE treated WEHI-3B cells; format: cell-based, murine; details: transmission electron microscopy (FIG. 6)

SMILES | effect of N-alkyl chain length on inhibition of glycolipid biosynthesis (loss of detectable Glc-Cer) [1] | further results
CCCCCCN1C[C@H](O)[C@@H](O)[C@H](O)[C@H]1CO [N-hexyl DNJ] | completely inhibited glycolipid biosynthesis | 
CCCN1C[C@H](O)[C@@H](O)[C@@H](O)[C@H]1CO [N-propyl DGJ, N-propyl deoxygalactonojirimycin] | partial inhibitory activity; also recorded: partially active | 
CCCCCCN1C[C@H](O)[C@@H](O)[C@@H](O)[C@H]1CO [N-hexyl DGJ, N-hexyl deoxygalactonojirimycin] | completely prevented glycolipid biosynthesis; also recorded: completely inhibited glycolipid biosynthesis | prevention of glycolipid storage in in vitro Gaucher's disease model (in words) [2]: offset glucoceramide accumulation
OC[C@H]1NC[C@H](O)[C@@H](O)[C@@H]1O [DNJ, deoxynojirimycin] | no effect | inhibition of glucose transfer ([3]; highest concentration tested 6.1 mM (FIG. 8)): not inhibitory at the highest concentration tested; IC50 [3]: > 5 mM
CCN1C[C@H](O)[C@@H](O)[C@@H](O)[C@H]1CO [N-ethyl DGJ] | no effect; also recorded: inactive | 
CN1C[C@H](O)[C@@H](O)[C@H](O)[C@H]1CO [N-methyl DNJ] | no effect | 
CCCN1C[C@H](O)[C@@H](O)[C@H](O)[C@H]1CO [N-propyl DNJ] | partial inhibitory activity | 
CCCCN1C[C@H](NC(C)=O)[C@@H](O)[C@H](O)[C@H]1CO [NB-NAG, N-butyl 2-acetamido-1,2,5-trideoxy-1,5-imino-D-glucitol] |  | inhibition of glycolipid biosynthesis [1]: without effect
OC[C@H]1NC[C@H](O)[C@@H](O)[C@H]1O [DGJ, Deoxygalactonojirimycin] | no effect; also recorded: inactive | inhibition of glucose transfer ([3]; highest concentration tested 5.0 mM (FIG. 8)): not inhibitory at the highest concentration tested; IC50 [3]: > 5 mM
O[C@H]1[C@H](O)[C@@H](O)[C@@H]2O[C@@H]2[C@@H]1O [CBE, conduritol β epoxide] |  | glycolipid accumulation in lysosomes (WEHI-3B cell lysosomes): glycolipid accumulation observed in the lysosomes
CCCCN1C[C@@H](O)[C@H](O)[C@H](O)[C@@H]1C [NB-DFJ] |  | inhibition of glycolipid biosynthesis [1]: without effect
CCCCN1C[C@@H](O)[C@@H](O)[C@H](O)[C@H]1CO [NB-DMJ, N-butyl deoxymannojirimycin] |  | inhibition of glycolipid biosynthesis [1]: without effect
CN1C[C@H](O)[C@@H](O)[C@@H](O)[C@H]1CO [N-methyl DGJ] | no effect; also recorded: inactive | 
